Entries after “also recorded” stand apart in the source; their conditions may differ.
Columns and labels:
[1] = system: esophageal eosinophil infiltrate; assay: Eosinophilic esophagitis model, L2-IL5 transgenic mouse sensitized/locally challenged with oxazolone; type: in vivo; settings: L2-IL5 mice, OXA, Day 13; for eosinophilia of the esophagus (MBP staining, eosinophils/400× hpf): FIG. 24
From the text: From the observation of increased local expression of Interleukin-5 (IL-5) in EoE, transgenic mouse with targeted IL-5 expression to the esophageal squamous epithelia using the Epstein-Barr virus ED-L2 (EBV-ED-L2) gene promoter was generated. […] Even though squamous epithelial-specific IL-5 expression alone induced a significant esophageal eosinophilia encompassing the length of the esophagus, this eosinophilia was not accompanied by the density of histopathological changes such as eosinophilic micro abscesses characteristic of EoE. However, L2-IL5 transgenic mice upon sensitization and subsequent localized topical esophageal challenge with 4-ethoxymethylene-2-phenyl-2-oxazolin-5-one (OXA), a molecule known to induce T-helper cell (Th) type 2 responses, developed key histopathological features, including epithelial hyperplasia and eosinophilic micro abscesses that erupt through the epithelium into the esophageal lumen. Immunohistochemical staining of the eosinophil secondary granule major basic protein (MBP-1) was used to assess the induced esophageal eosinophilia and eosinophil degranulation. […] However, this response was small compared to the induced eosinophilia and associated degranulation that occurred in OXA-treated L2-IL5 transgenic mice (Masterson et al. Gut. 2014, 63, 1-25, which is hereby incorporated by reference in its entirety).
Prior to the OXA sensitization and topical local challenge model of delayed contact hypersensitivity, L2-IL5 transgenic mice were intraperitoneally (IP) injected with compounds or vehicle at 8, 4, and 2 days before sensitization at Day zero (schematic timeline in FIG. 20A). Compounds are prepared by dissolving in dimethyl sulfoxide (DMSO) as master stocks. Fresh working stock compounds in water are prepared for each day of injection and 100 μL of working stock or vehicle is IP injected per mouse. On day zero of the OXA sensitization/local challenge, a 2 cm×2 cm area of abdominal skin of anaesthetized experimental animals was shaved and OXA was applied to the skin surface (150 μl of a 3% (w/v) solution of OXA in 4:1 acetone-olive oil vehicle) to initiate the sensitization phase of the protocol. Sensitized mice then received topical OXA challenges of the esophagus by gavage on protocol Day 5, 8 and 12 after OXA sensitization with 100 μL of a 1% (w/v) solution of OXA in 30% ethanol/olive oil vehicle into the proximal esophagus. In addition, compounds or vehicle were IP injected on Day 5, 8, and 12 after OXA sensitization. All mice were sacrificed, and esophagus collected for histology 24 hours following the last OXA challenge on Day 12 (FIG. 20A). Immunohistochemical staining using a rat monoclonal anti-mouse MBP-1 antibody was conducted to highlight esophageal eosinophil infiltration and localized degranulation. A quantitative assessment of the esophageal eosinophil infiltrate in each group of mice was determined across nine high powered field (hpf) of view, three distal ([…] (Prox)) regions and expressed as group mean data of the eosinophil density (ie, eosinophils/400× hpf) (FIG. 20B). In addition, the eosinophilia is recorded according to the different (epithelial, lamina propia, and muscle) cell layers of the esophagus (FIG. 20C).
of NDM-X in water (20 μL of master stock in […] of water) and 0.231 μg/L of 1 in water (22 μL of master stock in 1078 μL of water) for each injection cohort that are […], respectively. On Day zero of the OXA sensitization/local challenge, a 2 cm×2 cm area of abdominal skin of anaesthetized experimental animals was shaved and OXA was applied to the skin surface to initiate the sensitization phase of the protocol. Sensitized mice then received topical OXA challenges of the esophagus by gavage on protocol Day 5, 8 and 12 after OXA sensitization in the proximal esophagus. […]

Caco-2 cells = assay: Bidirectional permeability in Caco-2 cells; type: in vitro ADME; settings: 2 μM, 2 hours
Method: Caco-2 cells purchased from ATCC were seeded onto […] (PET) in 96-well BD Insert plates at 1×10^5 cells/cm^2, and the medium was refreshed every 4˜5 days until to the 21st to 28th day for formation of a confluent cell monolayer.
The transport buffer in the study was Hank's balanced salt solution (HBSS) with 10 mM HEPES at pH 7.40±0.05. Compound 1 was tested at 2 μM bi-directionally in duplicate. Digoxin was tested at 10 μM bi-directionally in duplicate, while nadolol and metoprolol were tested at 2 μM in A to B direction in duplicate. Final DMSO concentration was adjusted to less than 1%. […] Concentrations of compound 1 and […] in starting solution, donor solution, and receiver solution were quantified by LC/MS/MS methodologies, using peak area ratio of analyte/internal standard. […]
The apparent permeability coefficient Papp (cm/s) was calculated using the equation: Papp=(dCr/dt)×Vr/(A×C0) where dCr/dt is the cumulative concentration of compound in the receiver chamber as a function of time (μM/s); Vr is the solution volume in the receiver chamber (0.075 mL on the apical side, 0.25 mL on the basolateral side); A is the surface area for the transport, i.e. 0.0804 cm^2 for the area of the monolayer; Co is the initial concentration in the donor chamber (μM).
The efflux ratio was calculated using the equation: Efflux Ratio=Papp(BA)/Papp(AB) […]

[2] = High Dose IP (0.92 mg/kg 1; 0.77 mg/kg NDM-X), FIG. 21
[3] = Low Dose IP (0.014 mg/kg 1; 0.012 mg/kg NDM-X), FIG. 22

SMILES	eosinophilia of the esophagus (MBP staining, eosinophils/400× hpf) ([1]; 0.012 mg/kg Low Dose IP, listed as NDM-X)	eosinophilia of the esophagus (MBP staining, eosinophils/400× hpf) ([1]; 0.77 mg/kg High Dose IP)	eosinophilia of the esophagus (MBP-1 staining, eosinophils/400× hpf) [1, 2]	eosinophilia of the esophagus (MBP-1 staining, eosinophils/400× hpf) [1, 3]	bidirectional permeability (Caco-2 cells)	eosinophilia of the esophagus, dose dependence ([1]; 0.092 mg/kg Mid Dose and 0.92 mg/kg High Dose IP, FIG. 23)	eosinophilia of the esophagus (MBP-1 staining, eosinophils/400× hpf) ([1]; 0.92 mg/kg High Dose IP, FIG. 23)
C[C@H](CC/C=C/C(=O)O)O[C@@H]1O[C@@H](C)[C@H](O)C[C@H]1O [ascr #7, reference compound]	slightly better than 0.77 mg/kg High Dose of NDM-X in inhibiting the eosinophilia; also recorded: statistically significant inhibition of the eosinophilia observed in the epithelial, lamina propria, and muscle cell layers of the distal, middle, and proximal regions of the esophagus	statistically significant reduction of the eosinophilia in the epithelial and lamina propria cell layers of distal, middle, and proximal regions of the esophagus	statistically significant reduction in the eosinophilia in the lamina propria and muscle cell layers of the distal, middle, and proximal regions of the esophagus	statistically significant inhibition of the eosinophilia in all cell layers of the proximal region, the muscle cell layers in all regions, and the epithelial cell layer of the distal and proximal regions	low bidirectional permeability		
C[C@H](CC/C=C/C(=O)OC(C)(C)C)O[C@@H]1O[C@@H](C)[C@H](O)C[C@H]1O [Compound 1, tert-butyl (2E,6R)-6-{[(2R,3R,5R,6S)-3,5-dihydroxy-6-methyloxan-2-yl]oxy}hept-2-enoate]			statistically significant inhibition of eosinophilic esophagitis in the epithelial, lamina propria, and muscle layers of the distal, middle, and proximal cell layers of the esophagus; also recorded: more robust blocking of eosinophil esophagitis in the mouse model than compared to 0.77 mg/kg NDM-X High Dose	statistically significant inhibition of the eosinophilia in all cell layers of the proximal region, epithelial cell layer of the distal region, and lamina propria cell layer of the middle section of the esophagus	high bidirectional permeability	dose-dependently inhibited eosinophilia in the epithelial, lamina propria, and muscle cell layers of the distal, middle, and proximal regions of the esophagus	statistically significant inhibition of the eosinophilic esophagitis observed in epithelial cell layer of distal, middle, and proximal regions of the esophagus; also recorded: statistically significant inhibition of the eosinophilia observed in the lamina propria and muscle cell layers of the middle section of the esophagus; also recorded: statistically significant reduction in eosinophilia observed in all cell layers of the middle and proximal sections as well as the whole esophagus
